Results taken from patent publication US4880941A, “Trittum labelled compound, its preparation and its use in the determination of the affinity of retinoids for their cellular receptor” (priority 1986, dated 1989).

Tests used:
[1] = biological target: T1, cRABP (cellular Retinoic Acid-Binding Protein) (Rattus norvegicus, UniProt P62966); assay: Saturation test: fixation of ligand on soluble cRABP of rat testicle homogenate; design: a homogenate of rat testicles (organ rich in cRABP); from tissue; host or cells: rat testicles (homogenate), inferred from the saturation test; conditions: for nonspecific fixation (% of the total fixation): in the presence of a large excess (1 μM) of retinoic acid, ligand up to 50 nM
T1 sequence (P62966 whole entry): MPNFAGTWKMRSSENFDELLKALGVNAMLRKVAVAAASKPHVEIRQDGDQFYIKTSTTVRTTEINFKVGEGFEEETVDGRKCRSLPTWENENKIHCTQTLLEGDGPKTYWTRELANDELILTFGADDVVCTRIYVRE
Description: The total fixation (nonspecific +specific) (curva a), is obtained by incubation of increasing concentrations (up to a maximum of 50 nM) of the compound of the present invention with a constant quantity (0.3 ml) of a homogenate of rat testicles (organ rich in cRABP). […] An incubation time for 2 hours is necessary for the establishment of equilibrium conditions.
Once equilibrium is reached, the cRABP-tritiated ligand complex is separated from the nonlinked ligand by filtration on an exclusion gel Sephadex G25 column (Bio-Rad econo columns, 0.5×20 cm): the complex is eluted (elution peak at 2.5 ml), while the nonlinked ligand is retained in total on the column. A total separation is thus effected between the linked and nonlinked product. The eluation is made directly in the scintillation tubes and the radioactivity is measured by counting.
On FIG. 1, there is represented, on the abscissa, the initial concentrations of the ligand being studied, and on the ordinate, the concentrations at equilibrium of the ligand-receptor complex.
The difference between curves a (total fixation) and c (nonspecific fixation) gives the curve of specific fixation, curve b. The analysis of this curve provides the dissociation constant at equilibrium, (Kd), which is the concentration of product necessary for 50% saturation of the soluble receptor. This constant is a measure of the affinity of the ligand for its receptor, Kd being inversely proportional to affinity, (the weaker Kd is, the greater is the affinity).

[2] = biological target: T1, cRABP (cellular Retinoic Acid-Binding Protein); assay: Competition test of cold ligand against radioactive ligand for fixation on cRABP
Description: These competition tests are carried out in the following manner: a fixed amount of the radioactive ligand (corresponding essentially to the half-saturation of the fixed amount of receptor which will be employed), is mixed with increasing quantities of cold ligand (nonradioactive). The receptor is then added and there is determined the amount of radioactive ligand fixed at equilibrium (in % of initial fixation in the absence of cold ligand, for the amount of receptor considered).
Starting from the competition curves of FIGS. 2 to 7, there is determined in each case the IC50 (concentration of cold ligand reducing the attachment of 50% of the tritiated ligand). This IC50 value permits the calculation in each case of the dissociation constant at equilibrium (Kd) for the cold ligand.

SMILES	nonspecific fixation (% of the total fixation) [1]	Kd [2] [nM]	further results
[3H]c1cc2c(cc1-c1cc3ccc(C(=O)O)cc3s1)C(C)(C)CCC2(C)C [Example 1, 2-(3-^3 H-5,6,7,8-tetrahydro-5,5,8,8-tetramethyl-2-naphthyl)-6-benzo [b] thiophene carboxylic acid]	less than 10%	–	nonspecific fixation (character) ([1]; in the concentration range employed (up to 50 nM)): linear and nonsaturable; specific fixation (character) ([1]; saturation test, rat testicle homogenate): saturable and reversible; Kd ([1]; saturation test, rat testicle homogenate, 2 hours incubation, nonlinear regression (Clark equation), read-out: Kd (dissociation constant at equilibrium)): 2.7 ± 0.5 nM
CC1(C)CCC(C)(C)c2cc(-c3cc4ccc(C(=O)O)cc4s3)ccc21 [compound A, 2-(5,6,7,8-tetrahydro-5,5,8,8-tetramethyl-2-naphthyl)-6-benzo [b] thiophene carboxylic acid]	–	6	–
C/C(=C\c1ccc(C(=O)O)cc1)c1ccc2c(c1)C(C)(C)CCC2(C)C [compound B]	–	16	Kd ([2]; Kd of the cold ligand, radioactive ligand: tritiated retinoic acid, calculated from IC50 of competition curve): 20 nM
CC1=C(/C=C/C(C)=C/C=C/C(C)=C/C(=O)O)C(C)(C)CCC1 [retinoic acid]	approximately 25%	–	–
